Laboratory results published in patent US12227501B2, “3-amino-2-[2-(acylamino)pyridin-4-yl]-1,5,6,7-tetrahydro-4h-pyrrolo[3,2-c]pyridin-4-one as CSNK1 inhibitors” (Bayer Aktiengesellschaft, priority 2019, dated 2025).
Like-named read-outs stand apart in the source and are kept apart here.

Key:
Assay type in all cases: biochemical
human CSNK1A1 [1] = molecular target: T1, human CSNK1A1 (Homo sapiens (Human), UniProt P48729); experiment: CSNK1A1 Assay 2 (ADP-Glo, 1 μM ATP); settings: substrate biotin-Ahx-KRRRAL-pS-VASLPGL, read-out: CSNK1A1 Assay 2 IC50 [mol/l] (median)
Procedure, shortened: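 Full-length human CSNK1A1 as an N-terminal GST fusion (baculovirus/insect cells) with biotinylated peptide substrate biotin-Ahx-KRRRAL-pS-VASLPGL and 1 μM ATP, in HEPES pH 7.5 buffer. Compounds were pre-incubated with enzyme (~0.0375 ng/μL) for 15 min at 22 °C. Generated ADP was read by ADP-Glo luminescence as the activity measure.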

human CSNK1A1 [2] = molecular target: T1, human CSNK1A1; experiment: CSNK1A1 High ATP Assay (ADP-Glo, 1 mM ATP); settings: read-out: CSNK1A1 high ATP assay IC50 [mol/l] (median)
Procedure, shortened: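 Kinase activity taken as ADP generated, quantified by ADP-Glo luminescence after 1 h ATP depletion and 1 h detection at 22 °C. Enzyme is GST–full-length human CSNK1A1 (insect cell-expressed), pre-bound to compound for 15 min, with phosphopeptide substrate and 1 mM ATP.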

human CSNK1D = human CSNK1D (Homo sapiens (Human), UniProt P48730); experiment: CSNK1D Assay (ADP-Glo, 1 μM ATP); settings: read-out: CSNK1D IC50 [mol/l] (median)
Procedure, shortened: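 Activity is read as ADP produced, by ADP-Glo luminescence after 1 h steps at 22 °C. The reaction uses 1 μM ATP, a biotinylated peptide and insect-cell-expressed GST–CSNK1D (about 0.5 ng/μL) in pH 7.5 HEPES buffer, with 15 min compound–enzyme preincubation.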

[3] = molecular target: wild-type Epidermal Growth Factor Receptor (EGFR) (Homo sapiens (Human), UniProt P00533); experiment: WT-EGFR Kinase Assay (TR-FRET, 2 mM ATP)
[4] = read-out: EGFR Wildtyp- 2 mM ATP IC50 [mol/l] (median)
[5] = EGFR Wildtyp- 2 mM ATP IC50 [mol/l] (median)

human CSNK1D, sequence (P48730 whole entry): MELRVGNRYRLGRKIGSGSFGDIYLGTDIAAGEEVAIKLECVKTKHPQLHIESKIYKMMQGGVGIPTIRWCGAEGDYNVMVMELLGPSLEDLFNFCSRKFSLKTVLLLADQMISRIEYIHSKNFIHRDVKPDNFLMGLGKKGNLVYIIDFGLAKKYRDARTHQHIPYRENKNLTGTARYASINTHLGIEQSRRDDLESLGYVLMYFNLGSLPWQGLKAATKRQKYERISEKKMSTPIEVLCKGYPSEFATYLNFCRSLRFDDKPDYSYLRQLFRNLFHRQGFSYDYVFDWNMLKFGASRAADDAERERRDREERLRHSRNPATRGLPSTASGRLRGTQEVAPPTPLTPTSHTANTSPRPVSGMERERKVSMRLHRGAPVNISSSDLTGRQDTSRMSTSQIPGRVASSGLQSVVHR
wild-type Epidermal Growth Factor Receptor (EGFR), sequence (P00533 669-1210): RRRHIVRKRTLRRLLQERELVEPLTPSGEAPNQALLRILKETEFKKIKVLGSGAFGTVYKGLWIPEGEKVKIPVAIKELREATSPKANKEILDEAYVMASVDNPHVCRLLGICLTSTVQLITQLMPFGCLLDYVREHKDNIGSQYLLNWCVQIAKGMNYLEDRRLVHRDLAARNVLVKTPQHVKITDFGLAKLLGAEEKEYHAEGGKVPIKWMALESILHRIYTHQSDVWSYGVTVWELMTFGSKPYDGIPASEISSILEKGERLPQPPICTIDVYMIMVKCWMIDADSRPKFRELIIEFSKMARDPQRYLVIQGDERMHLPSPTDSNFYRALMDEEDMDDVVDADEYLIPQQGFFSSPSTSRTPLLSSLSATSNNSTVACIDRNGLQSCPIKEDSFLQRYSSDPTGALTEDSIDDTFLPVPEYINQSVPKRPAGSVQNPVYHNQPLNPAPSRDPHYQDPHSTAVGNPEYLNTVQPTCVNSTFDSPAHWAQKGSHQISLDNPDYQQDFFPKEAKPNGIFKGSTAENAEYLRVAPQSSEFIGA
T1 sequence (P48729 whole entry, the tested form may be a part): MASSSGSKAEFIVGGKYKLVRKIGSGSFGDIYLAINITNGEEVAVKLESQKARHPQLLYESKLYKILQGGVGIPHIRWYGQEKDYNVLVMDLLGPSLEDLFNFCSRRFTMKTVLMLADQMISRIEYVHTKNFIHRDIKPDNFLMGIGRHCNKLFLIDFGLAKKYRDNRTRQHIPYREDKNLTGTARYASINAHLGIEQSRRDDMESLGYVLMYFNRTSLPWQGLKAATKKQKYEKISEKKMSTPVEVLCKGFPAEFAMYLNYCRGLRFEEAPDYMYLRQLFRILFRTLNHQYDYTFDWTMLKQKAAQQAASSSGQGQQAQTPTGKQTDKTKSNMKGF

SMILES | IC50 (human CSNK1A1 [1]) | IC50 (human CSNK1A1 [2]) | IC50 (human CSNK1D) | IC50 [3, 4] | IC50 [3, 5]
CN1C(=O)c2c([nH]c(-c3ccnc(NC(=O)C(CC(F)F)c4ccc(F)cc4)c3)c2Nc2ccccc2F)CC1(C)C (single isomer, unassigned) [Example 47, 4,4-difluoro-N-{4-[3-(2-fluoroanilino)-5,6,6-trimethyl-4-oxo-4,5,6,7-tetrahydro-1H-pyrrolo[3,2-c]pyridin-2-yl]pyridin-2-yl}-2-(4-fluorophenyl)butanamide] | 163 nM | > 20000 nM | 151 nM | > 20000 nM | 
CC1(C)Cc2[nH]c(-c3ccnc(NC(=O)C(CC(F)F)c4ccc(F)cc4)c3)c(Nc3ccccc3)c2C(=O)N1 (single isomer, unassigned) [Example 50, N-[4-(3-anilino-6,6-dimethyl-4-oxo-4,5,6,7-tetrahydro-1H-pyrrolo[3,2-c]pyridin-2-yl)pyridin-2-yl]-4,4-difluoro-2-(4-fluorophenyl)butanamide] | 51 nM | 2460 nM | 68.2 nM | > 20000 nM | 
CC(C(=O)Nc1cc(-c2[nH]c3c(c2Nc2ccccc2)C(=O)N(C)CC3)ccn1)c1ccncc1 (single isomer, unassigned) [Example 74, N-[4-(3-anilino-5-methyl-4-oxo-4,5,6,7-tetrahydro-1H-pyrrolo[3,2-c]pyridin-2-yl)pyridin-2-yl]-2-(pyridin-4-yl)propanamide] | 33.9 nM | 599 nM | 55.1 nM |  | > 20000 nM
CC1(C)Cc2[nH]c(-c3ccnc(NC(=O)C(CC(F)F)c4ccc(F)cc4)c3)c(Nc3ccccc3)c2C(=O)N1 (single isomer, unassigned; (+)) [Example 49, (+)-N-[4-(3-anilino-6,6-dimethyl-4-oxo-4,5,6,7-tetrahydro-1H-pyrrolo[3,2-c]pyridin-2-yl)pyridin-2-yl]-4,4-difluoro-2-(4-fluorophenyl)butanamide] | 4.57 nM | 19.6 nM | 7.3 nM |  | > 20000 nM
O=C1NC2(CCC2)Cc2[nH]c(-c3ccnc(NC(=O)C(CC(F)F)c4ccc(F)cc4)c3)c(Nc3ccccc3)c21 (single isomer, unassigned; (+)) [Example 55, (+)-N-[4-(3′-anilino-4′-oxo-1′,4′,5′,7′-tetrahydrospiro[cyclobutane-1,6′-pyrrolo[3,2-c]pyridin]-2′-yl)pyridin-2-yl]-4,4-difluoro-2-(4-fluorophenyl)butanamide] | 4.25 nM | 9.1 nM | 4.38 nM |  | 1170 nM
CN(C)CCCC(C(=O)Nc1cc(-c2[nH]c3c(c2Nc2ccccc2)C(=O)N(C)CC3)ccn1)c1ccccc1 (single isomer, unassigned; (+)) [Example 60, (+)-N-[4-(3-anilino-5-methyl-4-oxo-4,5,6,7-tetrahydro-1H-pyrrolo[3,2-c]pyridin-2-yl)pyridin-2-yl]-5-(dimethylamino)-2-phenylpentanamide] | 7.34 nM | 437 nM | 11.8 nM |  | 7340 nM
CN1CCc2[nH]c(-c3ccnc(NC(=O)C(CC(F)F)c4ccc(F)cc4)c3)c(Nc3ccccc3)c2C1=O (single isomer, unassigned; (+)) [Example 63, (+)-N-[4-(3-anilino-5-methyl-4-oxo-4,5,6,7-tetrahydro-1H-pyrrolo[3,2-c]pyridin-2-yl)pyridin-2-yl]-4,4-difluoro-2-(4-fluorophenyl)butanamide] | 2.12 nM | 12.1 nM | 4 nM |  | 6680 nM
CC(C(=O)Nc1cc(-c2[nH]c3c(c2Nc2ccccc2)C(=O)N(C)CC3)ccn1)c1ccncc1 (single isomer, unassigned; (+)) [Example 73, (+)-N-[4-(3-anilino-5-methyl-4-oxo-4,5,6,7-tetrahydro-1H-pyrrolo[3,2-c]pyridin-2-yl)pyridin-2-yl]-2-(pyridin-4-yl)propanamide] | 2.38 nM | 63.3 nM | 4.46 nM |  | 6780 nM
CCC(C(=O)Nc1cc(-c2[nH]c3c(c2Nc2ccccc2)C(=O)N(C)CC3)ccn1)c1ccc(F)cc1 (single isomer, unassigned; (+)) [Example 77, (+)-N-[4-(3-anilino-5-methyl-4-oxo-4,5,6,7-tetrahydro-1H-pyrrolo[3,2-c]pyridin-2-yl)pyridin-2-yl]-2-(4-fluorophenyl)butanamide] | 2.12 nM | 86.7 nM | 4.43 nM | > 20000 nM | 
CC(C(=O)Nc1cc(-c2[nH]c3c(c2Nc2ccccc2)C(=O)N(C)CC3)ccn1)c1ccc(Cl)cc1 (single isomer, unassigned; (+)) [Example 81, (+)-N-[4-(3-anilino-5-methyl-4-oxo-4,5,6,7-tetrahydro-1H-pyrrolo[3,2-c]pyridin-2-yl)pyridin-2-yl]-2-(4-chlorophenyl)propanamide] | 4.33 nM | 71.4 nM | 8.47 nM | > 20000 nM | 
CC1Cc2[nH]c(-c3ccnc(NC(=O)Cc4ccc(F)cc4)c3)c(Nc3ccccc3)c2C(=O)N1C (single isomer, unassigned; (+)) [Example 89, (+)-N-{4-[3-anilino-5,6-dimethyl-4-oxo-4,5,6,7-tetrahydro-1H-pyrrolo[3,2-c]pyridin-2-yl]pyridin-2-yl}-2-(4-fluorophenyl)acetamide] | 1.88 nM | 364 nM | 5.72 nM |  | 6050 nM
CC(C(=O)Nc1cc(-c2[nH]c3c(c2Nc2ccccc2)C(=O)N(C)C(C)C3)ccn1)c1ccc(F)cc1 (single isomer, unassigned; (+)) [Example 91, (+)-(2RS)—N-{4-[(6R*)-3-anilino-5,6-dimethyl-4-oxo-4,5,6,7-tetrahydro-1H-pyrrolo[3,2-c]pyridin-2-yl]pyridin-2-yl}-2-(4-fluorophenyl)propanamide] | 4.73 nM | 693 nM | 8.83 nM |  | > 20000 nM
CC(C(=O)Nc1cc(-c2[nH]c3c(c2Nc2ccccc2)C(=O)N(C)C(C)C3)ccn1)c1ccc(F)cc1 (single isomer, unassigned; (+)) [Example 92, (+)-N-{4-[3-anilino-5,6-dimethyl-4-oxo-4,5,6,7-tetrahydro-1H-pyrrolo[3,2-c]pyridin-2-yl]pyridin-2-yl}-2-(4-fluorophenyl)propanamide] | 4.66 nM | 230 nM | 10.7 nM |  | > 20000 nM
CC(C(=O)Nc1cc(-c2[nH]c3c(c2Nc2ccccc2)C(=O)N(C)C(C)C3)ccn1)c1ccc(F)cc1 (single isomer, unassigned; (+)) [Example 96, (+)-N-{4-[3-anilino-5,6-dimethyl-4-oxo-4,5,6,7-tetrahydro-1H-pyrrolo[3,2-c]pyridin-2-yl]pyridin-2-yl}-2-(4-fluorophenyl)propanamide] | 5.37 nM | 35.8 nM | 4.36 nM |  | 7040 nM
CC1Cc2[nH]c(-c3ccnc(NC(=O)Cc4ccncc4)c3)c(Nc3ccccc3)c2C(=O)N1C (single isomer, unassigned; (+)) [Example 98, (+)-N-{4-[(6R*)-3-anilino-5,6-dimethyl-4-oxo-4,5,6,7-tetrahydro-1H-pyrrolo[3,2-c]pyridin-2-yl]pyridin-2-yl}-2-(pyridin-4-yl)acetamide] | 4.16 nM | 149 nM | 6.13 nM |  | 4340 nM
CC1Cc2[nH]c(-c3ccnc(NC(=O)Cc4ccc(F)cc4)c3)c(Nc3ccccc3F)c2C(=O)N1C (single isomer, unassigned; (+)) [Example 101, (+)-N-{4-[3-(2-fluoroanilino)-5,6-dimethyl-4-oxo-4,5,6,7-tetrahydro-1H-pyrrolo[3,2-c]pyridin-2-yl]pyridin-2-yl}-2-(4-fluorophenyl)acetamide] | 3.74 nM | 258 nM | 7.42 nM |  | > 20000 nM
CC1Cc2[nH]c(-c3ccnc(NC(=O)C(CC(F)F)c4ccc(F)cc4)c3)c(Nc3ccccc3F)c2C(=O)N1C (single isomer, unassigned; (+)) [Example 103, (+)-(2RS)-4,4-difluoro-N-{4-[(6R*)-3-(2-fluoroanilino)-5,6-dimethyl-4-oxo-4,5,6,7-tetrahydro-1H-pyrrolo[3,2-c]pyridin-2-yl]pyridin-2-yl}-2-(4-fluorophenyl)butanamide] | 12.8 nM | 268 nM | 17.3 nM |  | > 20000 nM
CC1Cc2[nH]c(-c3ccnc(NC(=O)C(CC(F)F)c4ccc(F)cc4)c3)c(Nc3ccccc3F)c2C(=O)N1C (single isomer, unassigned; (+)) [Example 105, (+)-4,4-difluoro-N-{4-[3-(2-fluoroanilino)-5,6-dimethyl-4-oxo-4,5,6,7-tetrahydro-1H-pyrrolo[3,2-c]pyridin-2-yl]pyridin-2-yl}-2-(4-fluorophenyl)butanamide] | 4.06 nM | 94.5 nM | 5.45 nM | > 20000 nM | 
